Entries after “also recorded” stand apart in the source; their conditions may differ.
Legend:
Assay type in all cases: cell-based, human
[1] = test system: hES cells (e.g., BGO2 cells); assay: Low-density colony forming / colony counting assay (AP+ colonies); conditions: 10^4 cells/well, StemPro hESC SFM, 7 days; for support of colony formation at low density: compounds at 10 or 50 μM
Protocol: FIG. 2. Low density plating assay of hES cells (e.g., BGO2 cells). 10000 cells/well were plated in 6-well trays in StemPro® hESC SFM (Life Technologies) medium and stained with alkaline phosphatase (AP+) after 7 days. Y (Y27632), ACh (acetylcholine), NMDA (N-methyl-D-aspartic acid), NE ((−)-Norepinephrine), NE.Bit ((±)-Norepinephrine (+)-bitartrate). Compounds were added at 10 or 50 μM as indicated.
FIG. 3. Low density plating assay of hES cells. (A) 200-10000 cells/well were plated in […] trays in StemPro® hESC SFM medium, or StemPro® hESC SFM +50 μM NE, or +50 μM ACh, and stained with alkaline phosphatase (AP+) after 8 days. […] ACh (acetylcholine), NE ((±)-Norepinephrine (+)-bitartrate). […]
About 10^4 hES cells/well were plated in 6-well trays in StemPro® hESC SFM, in the presence of different compounds and cultured for about 7 days. The cultures were then fixed, stained for alkaline phosphatase activity and colonies were counted (FIG. 2). […] The (±)-Norepinephrine (+)-bitartrate salt was used for all subsequent experiments involving norepinephrine (NE) unless specifically described otherwise.
A similar colony counting experiment was performed using a range of cell densities (FIG. 3). […] See Robins and Schulz 2009, supra. […]

hES cells = assay: Low-density real-time cell index monitoring (RT-CES impedance reader); conditions: for survival/proliferation compared to DMSO controls: StemPro hESC SFM HIA, low-density impedance assay; for survival and expansion at low density, single factors and two-factor combinations: 50 μM (NE, ACh, Adenosine, GABA) or 10 μM (Y27632), 5 days
Protocol: FIG. 4. Titration of NE and ACh using the RT-CES impedance reader. 1000 hES cells/well were plated in StemPro® hESC SFM containing the indicated concentrations of small molecules (in μM). In such an assay, the timing of when the cell index rises is associated with the proportion of cells that survive and expand at low density.
FIG. 5. Combined effects of small molecules compound combinations in low cell density assays. (A) 1000 hES cells/well were plated in StemPro® hESC SFM containing small molecules at 50 μM (NE, ACh, Adenosine, GABA) or 10 μM (Y27632). The assay was carried out over 5 days using the RT-CES system.
FIG. 6. […] 1000 hES cells/well were plated in StemPro® hESC SFM containing Heregulin, IGF1 and Activin (HIA) and the indicated small molecules. […] Compounds were tested at 10 μM. The DMSO trace is an average of 8 wells. […] Compounds were tested at the indicated concentrations.
FIG. 7. […] 1000 hES cells/well were plated in StemPro® hESC SFM containing the indicated combinations of growth factors and small molecules. Heregulin (H), LR3-IGF1 (I), Activin (A).
FIG. 9. Low-density RT-CES assays of combinations of growth factors and neurotransmitters. 1000 hES cells/well were plated in StemPro® hESC SFM containing the indicated combinations of growth factors and small molecules. Heregulin (H), LR3-IGF1 (I), Activin (A). Small molecules were tested at 50 μM.
Furthermore, pluripotent cells can also be grown in 96-well culture devices that provide real-time measurements of impedance, which can be used to measure cell proliferation and viability using the RT-CES™ methods from ACEA Biosciences, Inc. (www (dot) aceabio (dot) com). Such an approach would enable a label-free identification and quantification of subtle or immediate effects on differentiable cells, as well as measurements of proliferation, apoptosis and changes to morphology, in real time.
To examine more closely the potency of individual neurotransmitters and determine if synergies exist between different factors, low-density assays were performed in real time using an impedance reader. The ACEA biosciences RT-CES system uses 96-well trays that contain embedded microsensors to monitor changes in electrical impedance, which is translated into a measure of cell index. Any overt alteration within a cell culture can be detected, including but not limited to cell proliferation, migration, cell spreading, apoptosis, differentiation and the like. […] Once an undifferentiated culture becomes confluent the cell index remains high, but tends to go down and up (scallop) between daily feedings. Conversely, differentiation is typically indicated by the appearance of distinctive patterns, such as peaks and troughs in the cell index, likely indicative of an epithelial-to-mesenchymal transition, flattening, cell migration, apoptosis or similar differentiation and growth related changes.
Human ES cells were plated at low density, 1000 cells/well, in RT-CES trays and cultured for 10 days (FIG. 4). Cells were plated directly in StemPro® hESC SFM containing carrier control (DMSO), NE, or ACh.

CyT49 cells = assay: Suspension aggregate culture, cell counts and aggregate diameters
Protocol: FIG. 10. Effects of NE and ACh in suspension culture of hES cell. (A) 5×10^6 CyT49 cells were seeded in 5 ml StemPro® hESC SFM containing heregulin, LR3-IGF1, Activin and the indicated neurotransmitters at 50 μM in low-attachment 6-well trays and placed at 100 rpm. Undifferentiated suspension aggregates were imaged on day 4. (B) 24 hours after seeding, two wells from each condition were harvested and counted to determine the number of viable cells. (C) Cell counts of each condition when the cultures were split on day 4. (D) The images in (A) were used to determine aggregate diameters using the ImagePro software measurement tool. Average diameters and standard deviations from 50-100 aggregates from each condition are shown. (E) Passage 1 cell counting data. 5×10^6 CyT49 hES cells from p0 cells in (A) were seeded into the same conditions. The aggregates in the condition containing Y27632 were larger and had to be passaged 3 days after seeding, before the centers of the largest aggregates became necrotic. Conversely, the other conditions could be cultured for 6 days before passaging, resulting in higher cell counts.
FIG. 11. Suspension hES cell cultured with NE, […] remain undifferentiated. CyT49 cells were grown as suspension aggregates in the presence of NE, […] for 16 passages without differentiating morphologically. After p10, some cells were re-plated to adherent culture and examined by karyotyping and immunofluorescent staining for OCT4 and Tra-1-61. All cultures remained undifferentiated and expressed these pluripotency markers uniformly. (SP) StemPro® SFM HIA, NE (+NE at 50 μM), ACh (+ACh at 50 μM), NE/ACh (+NE/ACh at 50 μM). Karyotype data is shown to the right. […] Cultures containing ACh were aneuploid.
Small molecule ligands that support survival or self-renewal at low cell densities could also be expected to have beneficial effects in other culture formats. Applicants have previously developed a suspension culture system for hES cells that enables serial propagation of cells and effective expansion of cultures. Human ES cells, at least BG02 and CyT49 cells, have been maintained in suspension for greater than 10 passages without differentiation. The basis of the technique is to dissociate cultures to single cells with reagents that preserve high viability, such as Accutase™, TrypLE or cell dispersal buffer, then aggregate defined concentrations of cells in defined medium in rotational culture. These methods are described in more detail in International Application PCT/US2008/082356, entitled STEM CELL AGGREGATE SUSPENSION COMPOSITIONS AND METHODS OF DIFFERENTIATION THEREOF, filed Nov. 4, 2008; and International Application PCT/US2007/062755, entitled COMPOSITIONS AND METHODS FOR CULTURING DI[…], filed Feb. 23, 2007, which are herein incorporated by reference in their entireties. Self-aggregation of hES cells occurs in the absence of added extracellular matrix (ECM) or ECM-like proteins and is presumed to be driven in part by homotypic interaction of E-cadherin. The aggregates that are formed expand over 3-4 days and are kept apart from each other by the shear forces generated by rotational culture. Cells are blocked from differentiating by the self-renewal signaling provided by the defined medium and retain their pluripotent characteristics: marker expression, normal karyotype, and differentiation potential in vitro and in teratomas. […]

CN1CCCC1c1cccnc1 (stereo not shown) [nicotine]
support of colony formation at low density [1]: failed to support enhanced colony formation

CN[C@H](CC(=O)O)C(=O)O [NMDA, N-methyl-D-aspartic acid]
support of colony formation at low density [1]: failed to support enhanced colony formation
survival/proliferation compared to DMSO controls (hES cells; 1000 cells/well): lack of robust activity

NCCc1c[nH]cn1 [histamine]
support of colony formation at low density [1]: failed to support enhanced colony formation
survival/proliferation compared to DMSO controls (hES cells; 1000 cells/well): lack of robust activity

Nc1ncnc2c1ncn2[C@@H]1O[C@H](CO)[C@@H](O)[C@H]1O [adenosine]
support of colony formation at low density [1]: supported elevated colony formation
survival and expansion at low density, single factors and two-factor combinations (hES cells; 1000 cells/well): less effective
time after plating at which cell index rises above background / expansion detectable (hES cells; 50 μM each factor, 1000 cells/well, StemPro hESC SFM): ~4.5 days

(−)-Norepinephrine
support of colony formation at low density [1]: supported elevated colony formation

C[C@@H](N)[C@H]1CC[C@H](C(=O)Nc2ccncc2)CC1 [Y27632]
AP+ colonies counted ([1]; 6-well trays): 0 colonies
support of colony formation at low density [1]: did not support colony survival/expansion
survival and expansion at low density, single factors and two-factor combinations (hES cells; 1000 cells/well): did not survive or proliferate; also recorded: reduced the effects of NE, ACh, Adenosine and GABA
cells generated at passage 1 (CyT49 cells; passaged after 3 days): about 1.2×10^7 cells
aggregate size on day 4 (CyT49 cells; suspension, StemPro hESC SFM HIA, neurotransmitters 50 μM): fewer numbers of larger aggregates

NCCc1c[nH]c2ccc(O)cc12 [serotonin]
survival/proliferation compared to DMSO controls (hES cells; 1000 cells/well): enhanced survival/proliferation

B1: Activin: recombinant Activin A growth factor of the defined medium (protein, UniProt P08476 311-426, looked up)
Inhibin beta A chain: GLECDGKVNICCKKQFFVSFKDIGWNDWIIAPSGYHANYCEGECPSHIAGTSGSSLSFHSTVINHYRMRGHSPFANLKSCCVPTKLRPMSMLYYDDGQNIIKKDIQNMIVEECGCS
modifications: Inhibin beta A chain
role in plating, survival and/or expansion at low cell density (hES cells; low cell density): major negative role
